Measurements taken from PubChem BioAssay AID1963847 (Molecular Pharmacology Branch, DTP, NCI, 2024).

Tested on: 415267-285-R-J2-PDC complex spheroid viability
Experiment: Anticancer human tumor 415267-285-R-J2-PDC patient-derived breast carcinoma cell line growth inhibition [POLQ]
Details: for IC50: curve of first compound; for viability, T/C: stronger effect = lower value
Summary of the method: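 Complex spheroid viability model combining PDC tumour cells with endothelial (HUVEC) and MSC stromal cells. Novobiocin, ART-558 or RP6685 were tested singly and in combination with standard and investigational anticancer drugs. Each was titrated in half-log steps from near clinical Cmax, or from 10 microM where Cmax was unknown.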

[1] = second compound 0.0316 µM, first compound 0.0316 µM
[2] = second compound 0.0316 µM, first compound 0.1 µM
[3] = second compound 0.0316 µM, first compound 0.316 µM
[4] = second compound 0.0316 µM, first compound 1 µM
[5] = second compound 0.0316 µM, first compound 3.16 µM
[6] = second compound 0.0316 µM, first compound 10 µM
[7] = second compound 0.1 µM, first compound 0.0316 µM
[8] = second compound 0.1 µM, first compound 0.1 µM
[9] = second compound 0.1 µM, first compound 0.316 µM
[10] = second compound 0.1 µM, first compound 1 µM
[11] = second compound 0.1 µM, first compound 3.16 µM
[12] = second compound 0.1 µM, first compound 10 µM
[13] = second compound 0.316 µM, first compound 0.0316 µM
[14] = second compound 0.316 µM, first compound 0.1 µM
[15] = second compound 0.316 µM, first compound 0.316 µM
[16] = second compound 0.316 µM, first compound 1 µM
[17] = second compound 0.316 µM, first compound 3.16 µM
[18] = second compound 0.316 µM, first compound 10 µM
[19] = second compound 1 µM, first compound 0.0316 µM
[20] = second compound 1 µM, first compound 0.1 µM
[21] = second compound 1 µM, first compound 0.316 µM
[22] = second compound 1 µM, first compound 1 µM
[23] = second compound 1 µM, first compound 3.16 µM
[24] = second compound 1 µM, first compound 10 µM
[25] = second compound 3.16 µM, first compound 0.0316 µM
[26] = second compound 3.16 µM, first compound 0.1 µM
[27] = second compound 3.16 µM, first compound 0.316 µM
[28] = second compound 3.16 µM, first compound 1 µM
[29] = second compound 3.16 µM, first compound 3.16 µM
[30] = second compound 3.16 µM, first compound 10 µM
[31] = second compound 10 µM, first compound 0.0316 µM
[32] = second compound 10 µM, first compound 0.1 µM
[33] = second compound 10 µM, first compound 0.316 µM
[34] = second compound 10 µM, first compound 1 µM
[35] = second compound 10 µM, first compound 3.16 µM
[36] = second compound 10 µM, first compound 10 µM
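Further: spheroids exposed to compounds for one week before readout.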
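Wherever viability, T/C is given: luminescence used as stand-in measure of viable cells; 100% = DMSO vehicle control viability.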

C=CC(=O)N1CCN(c2nc(=O)n(-c3c(C)ccnc3C(C)C)c3nc(-c4c(O)cccc4F)c(F)cc23)C(C)C1 (stereo not given) + COC1C(OC(N)=O)C(O)C(Oc2ccc3c(O)c(NC(=O)c4ccc(O)c(CC=C(C)C)c4)c(=O)oc3c2C)OC1(C)C
IC50 (second compound 0.0316 µM): > 10 µM
IC50 (second compound 0.1 µM): > 10 µM
IC50 (second compound 0.316 µM): > 10 µM
IC50 (second compound 1 µM): > 10 µM
IC50 (second compound 3.16 µM): > 10 µM
IC50 (second compound 10 µM): > 10 µM
viability, T/C [1]: 103%
viability, T/C [2]: 93.4%
viability, T/C [3]: 105%
viability, T/C [4]: 92.6%
viability, T/C [5]: 112%
viability, T/C [6]: 92.2%
viability, T/C [7]: 85.4%
viability, T/C [8]: 97.5%
viability, T/C [9]: 98.5%
viability, T/C [10]: 93%
viability, T/C [11]: 108%
viability, T/C [12]: 103%
viability, T/C [13]: 103%
viability, T/C [14]: 89.8%
viability, T/C [15]: 82.8%
viability, T/C [16]: 107%
viability, T/C [17]: 112%
viability, T/C [18]: 93%
viability, T/C [19]: 98.6%
viability, T/C [20]: 94.5%
viability, T/C [21]: 93.9%
viability, T/C [22]: 97%
viability, T/C [23]: 97.5%
viability, T/C [24]: 98.2%
viability, T/C [25]: 101%
viability, T/C [26]: 102%
viability, T/C [27]: 97.2%
viability, T/C [28]: 101%
viability, T/C [29]: 101%
viability, T/C [30]: 95.9%
viability, T/C [31]: 95.1%
viability, T/C [32]: 95.8%
viability, T/C [33]: 112%
viability, T/C [34]: 109%
viability, T/C [35]: 90.6%
viability, T/C [36]: 86.9%

CCc1cc2c(N3CCc4c(cc(Cn5ccnc5)cc4-c4cn(C)nc4C(F)(F)F)C3=O)cc(C)nc2c(OC)n1 + COC1C(OC(N)=O)C(O)C(Oc2ccc3c(O)c(NC(=O)c4ccc(O)c(CC=C(C)C)c4)c(=O)oc3c2C)OC1(C)C
IC50 (second compound 0.0316 µM): > 10 µM
IC50 (second compound 0.1 µM): > 10 µM
IC50 (second compound 0.316 µM): > 10 µM
IC50 (second compound 1 µM): > 10 µM
IC50 (second compound 3.16 µM): > 10 µM
IC50 (second compound 10 µM): > 10 µM
viability, T/C [1]: 75.5%
viability, T/C [2]: 81.8%
viability, T/C [3]: 84.8%
viability, T/C [4]: 76.1%
viability, T/C [5]: 76%
viability, T/C [6]: 64.4%
viability, T/C [7]: 84%
viability, T/C [8]: 81.9%
viability, T/C [9]: 80.6%
viability, T/C [10]: 75.6%
viability, T/C [11]: 72.9%
viability, T/C [12]: 66.8%
viability, T/C [13]: 93.5%
viability, T/C [14]: 79.9%
viability, T/C [15]: 74.2%
viability, T/C [16]: 69.5%
viability, T/C [17]: 83.7%
viability, T/C [18]: 65.9%
viability, T/C [19]: 94.1%
viability, T/C [20]: 79.6%
viability, T/C [21]: 68.1%
viability, T/C [22]: 73.9%
viability, T/C [23]: 73.6%
viability, T/C [24]: 55.5%
viability, T/C [25]: 92.3%
viability, T/C [26]: 98.6%
viability, T/C [27]: 73.8%
viability, T/C [28]: 85.3%
viability, T/C [29]: 80.9%
viability, T/C [30]: 73.5%
viability, T/C [31]: 90.2%
viability, T/C [32]: 85.9%
viability, T/C [33]: 88.3%
viability, T/C [34]: 82%
viability, T/C [35]: 68.5%
viability, T/C [36]: 59.7%

CCc1cc2c(N3CCc4c(cc(Cn5ccnc5)cc4-c4cn(C)nc4C(F)(F)F)C3=O)ccnc2c(OC)n1 + Cc1cccc(N(C)C(=O)C2C(O)CCN2c2nc(C)cc(C(F)(F)F)c2C#N)c1
IC50 (second compound 0.0316 µM): > 10 µM
IC50 (second compound 0.1 µM): > 10 µM
IC50 (second compound 0.316 µM): > 10 µM
IC50 (second compound 1 µM): > 10 µM
IC50 (second compound 3.16 µM): > 10 µM
IC50 (second compound 10 µM): > 10 µM
viability, T/C [1]: 88.4%
viability, T/C [2]: 94.8%
viability, T/C [3]: 88.7%
viability, T/C [4]: 86.2%
viability, T/C [5]: 92.8%
viability, T/C [6]: 79.2%
viability, T/C [7]: 102%
viability, T/C [8]: 99.8%
viability, T/C [9]: 80.2%
viability, T/C [10]: 89%
viability, T/C [11]: 95.4%
viability, T/C [12]: 77.2%
viability, T/C [13]: 105%
viability, T/C [14]: 96.1%
viability, T/C [15]: 88.5%
viability, T/C [16]: 88.7%
viability, T/C [17]: 89.8%
viability, T/C [18]: 88.7%
viability, T/C [19]: 92.3%
viability, T/C [20]: 91.5%
viability, T/C [21]: 88.1%
viability, T/C [22]: 88.2%
viability, T/C [23]: 91.2%
viability, T/C [24]: 86.2%
viability, T/C [25]: 102%
viability, T/C [26]: 98.3%
viability, T/C [27]: 82.3%
viability, T/C [28]: 101%
viability, T/C [29]: 92.2%
viability, T/C [30]: 85.4%
viability, T/C [31]: 100%
viability, T/C [32]: 100%
viability, T/C [33]: 99.6%
viability, T/C [34]: 99.8%
viability, T/C [35]: 82.5%
viability, T/C [36]: 77.8%

C=CC(=O)N1CCN(c2nc(=O)n(-c3c(C)ccnc3C(C)C)c3nc(-c4c(O)cccc4F)c(F)cc23)C(C)C1 (stereo not given) + Nc1ccc(C#CCN(C(=O)Cc2ncc(C(F)(F)F)cc2C(F)(F)F)c2ccc(F)cc2)nn1
IC50 (second compound 0.0316 µM): > 10 µM
IC50 (second compound 0.1 µM): > 10 µM
IC50 (second compound 0.316 µM): > 10 µM
IC50 (second compound 1 µM): > 10 µM
IC50 (second compound 3.16 µM): > 10 µM
IC50 (second compound 10 µM): > 10 µM
viability, T/C [1]: 99.7%
viability, T/C [2]: 110%
viability, T/C [3]: 121%
viability, T/C [4]: 114%
viability, T/C [5]: 104%
viability, T/C [6]: 99.6%
viability, T/C [7]: 98.5%
viability, T/C [8]: 103%
viability, T/C [9]: 94.7%
viability, T/C [10]: 100%
viability, T/C [11]: 103%
viability, T/C [12]: 105%
viability, T/C [13]: 97.5%
viability, T/C [14]: 114%
viability, T/C [15]: 91.8%
viability, T/C [16]: 93%
viability, T/C [17]: 98.2%
viability, T/C [18]: 92.5%
viability, T/C [19]: 111%
viability, T/C [20]: 91.7%
viability, T/C [21]: 113%
viability, T/C [22]: 106%
viability, T/C [23]: 96%
viability, T/C [24]: 105%
viability, T/C [25]: 99.1%
viability, T/C [26]: 106%
viability, T/C [27]: 107%
viability, T/C [28]: 102%
viability, T/C [29]: 99.1%
viability, T/C [30]: 104%
viability, T/C [31]: 94.5%
viability, T/C [32]: 112%
viability, T/C [33]: 106%
viability, T/C [34]: 107%
viability, T/C [35]: 104%
viability, T/C [36]: 102%

O=c1[nH]cc(F)c(=O)[nH]1 + Nc1ccc(C#CCN(C(=O)Cc2ncc(C(F)(F)F)cc2C(F)(F)F)c2ccc(F)cc2)nn1
IC50 (second compound 0.0316 µM): 0.435 µM
IC50 (second compound 0.1 µM): 0.262 µM
IC50 (second compound 0.316 µM): 0.283 µM
IC50 (second compound 1 µM): 0.307 µM
IC50 (second compound 3.16 µM): 0.268 µM
IC50 (second compound 10 µM): 0.309 µM
viability, T/C [1]: 101%
viability, T/C [2]: 93%
viability, T/C [3]: 57.5%
viability, T/C [4]: 21.4%
viability, T/C [5]: 29.9%
viability, T/C [6]: 40.1%
viability, T/C [7]: 86.4%
viability, T/C [8]: 85.5%
viability, T/C [9]: 43%
viability, T/C [10]: 20.9%
viability, T/C [11]: 30%
viability, T/C [12]: 38.5%
viability, T/C [13]: 93.6%
viability, T/C [14]: 97%
viability, T/C [15]: 45.1%
viability, T/C [16]: 24.4%
viability, T/C [17]: 24.6%
viability, T/C [18]: 46.4%
viability, T/C [19]: 97%
viability, T/C [20]: 92.7%
viability, T/C [21]: 49.1%
viability, T/C [22]: 27.1%
viability, T/C [23]: 30.4%
viability, T/C [24]: 35.4%
viability, T/C [25]: 106%
viability, T/C [26]: 90.7%
viability, T/C [27]: 44.5%
viability, T/C [28]: 22.4%
viability, T/C [29]: 24.1%
viability, T/C [30]: 42.3%
viability, T/C [31]: 113%
viability, T/C [32]: 87%
viability, T/C [33]: 52.5%
viability, T/C [34]: 26.5%
viability, T/C [35]: 26.6%
viability, T/C [36]: 39%
